Reference: patent US20220401381A1, “PERIPHERALLY ACTING CANNABIDIOL (CBD)-CONTAINING COMPOUNDS AND USES THEREOF FOR ENHANCING FEMALE SEXUAL FUNCTION OR TREATING FEMALE SEXUAL DISORDERS” (Vella Bioscience, Inc., priority 2019, published 2022)
Entries after “also recorded” stand apart in the source; their conditions may differ.

What was measured:
[1] = subcutaneous injection 45 minutes prior to sexual activity; cited from earlier work
[2] = system: rat vaginal smooth muscle tissue (intact/sham rats); assay: EFS-induced contraction of vaginal strips from intact/sham rats, isolated organ bath, isometric tension
Excerpt: (§1) The following in vitro methodology was utilized to examine the concentration-dependent response of rat vaginal tissue, both proximal and distal, to CBD following contraction by electrical field stimulation (similar to efferent neurostimulation in vivo)
(§2) Female rats either intact (n=6) or bilaterally oophorectomized (OVX) (n=6 rats); the animals were euthanized 6 weeks post OVX and vagina dissected. Then, the vagina was cut into 2 halves, proximal and distal, and 4 strips max per region cut in circular direction were prepared and mounted as shown in FIG. 1.
(§3) The strips were excised from the tissue samples and connected to force transducers for isometric tension recording. Organ baths were filled with Krebs buffer maintained at 37° C. and bubbled with 95% O2 and 5% CO2, pH 7.4.
(§4) Female rats without (n=6) prior bilateral oophorectomies were euthanized and the proximal and distal vaginal tissue was harvested and suspended in a classic organ bath infused at a physiological temperature, pH, and oxygen level. […] This was also true regardless of whether the tissue was from the proximal or distal vaginal tissue (FIG. 2(A-E)).

[3] = system: rat vaginal smooth muscle tissue (OVX rats); assay: EFS-induced contraction of vaginal strips from oophorectomized (OVX) rats, isolated organ bath, isometric tension
Excerpt: as §1, §2, §3
as §4, with “with” for “without”, “3(A-E)).” for “2(A-E)).”

SMILES | side-effect: nausea, incidence [1] | relaxation (inhibition of EFS-induced contraction) of vaginal strips ([2]; intact/sham (non-oophorectomized) rats, proximal or distal tissue, CBD 1, 10 and 100 μg/ml, EFS 1 Hz to 48 Hz, vs vehicle) | relaxant effect on distal vaginal smooth muscle tissue ([2]; intact/sham rat, distal, FIG. 4B) | relaxant effect on proximal vaginal smooth muscle tissue ([2]; intact/sham rat, proximal, FIG. 4A) | relaxant effect on distal vaginal smooth muscle tissue ([3]; OVX rat, distal, FIG. 5B) | relaxant effect on proximal vaginal smooth muscle tissue ([3]; OVX rat, proximal, FIG. 5A) | relaxation (inhibition of EFS-induced contraction) of vaginal strips ([3]; oophorectomized (OVX) rats, proximal or distal tissue, CBD 1, 10 and 100 μg/ml, EFS 1 Hz to 48 Hz, vs vehicle)
CCCC[C@H](NC(C)=O)C(=O)N[C@H]1CC(=O)NCCCC[C@@H](C(=O)O)NC(=O)[C@H](Cc2c[nH]c3ccccc23)NC(=O)[C@H](CCCN=C(N)N)NC(=O)[C@@H](Cc2ccccc2)NC(=O)[C@H](Cc2cnc[nH]2)NC1=O [bremelanotide] | 40% |  |  |  |  |  | 
C=C(C)[C@@H]1CCC(C)=C[C@H]1c1c(O)cc(CCCCC)cc1O [CBD, (−)-trans-cannabidiol] |  | dramatic and significant dose-response relaxation; also recorded: significant relaxant effect | statistically significant, unexpected, peripheral, dose-dependent pharmacological relaxant effect | statistically significant, unexpected, peripheral, dose-dependent pharmacological relaxant effect | statistically significant, unexpected, peripheral, dose-dependent pharmacological relaxant effect | statistically significant, unexpected, peripheral, dose-dependent pharmacological relaxant effect | dramatic and significant dose-response relaxation; also recorded: significant relaxant effect
